Laboratory results: patent US12290521B2, “Methods and materials for identifying and treating BET inhibitor-resistant cancers” (Mayo Foundation for Medical Education and Research, priority 2018, dated 2025)

Tested on: SPOP and BRD2/3/4
Assay: Western blot, co-IP and in vivo ubiquitination assay in 293T cells
Type: cell-based, human
Settings: JQ1 1 μM, 24 hours
Procedure: To immunoprecipitate the ectopically expressed FLAG-tagged proteins, transfected cells were lysed 24 hours post-transfection in BC100 buffer. The whole-cell lysates were immunoprecipitated with the monoclonal anti-FLAG antibody-conjugated M2 agarose beads (Sigma-Aldrich) at 4° C. overnight. After three washes with lysis buffer, followed by two washes with BC100 buffer, the bound proteins were eluted using FLAG-Peptide (Sigma-Aldrich) prepared in BC100 for 3 hours at 4° C. The eluted protein sample was resolved by SDS-PAGE. To immunoprecipitate the endogenous proteins, cells were lysed with 1× cell lysis buffer (Cell Signaling Technology), and the lysate was centrifuged. The supernatant was precleared with protein A/G beads (Sigma-Aldrich) and incubated with the indicated antibody and protein A/G beads at 4° C. overnight. Beads were washed five times with lysis buffer and resuspended in sample buffer and analyzed by SDS-PAGE.
Cell lysates or immunoprecipitates were subjected to SDS-PAGE, and proteins were transferred to nitrocellulose membranes (GE Healthcare Sciences). The membranes were blocked in Tris-buffered saline (TBS, pH 7.4) containing 5% non-fat milk and 0.1% Tween-20, washed twice in TBS containing 0.1% Tween-20, and incubated with primary antibody overnight at 4° C., followed by secondary antibody for 1 hour at room temperature. The proteins of interest were visualized using ECL chemiluminescence system (Santa Cruz Biotechnology). Densitometry analysis of protein bands was analyzed on the Gel-Pro Analyzer software.
For the in vivo ubiquitination assay, C4-2 cells were transfected with plasmids for HA-Ub, FLAG-BRD4, and other indicated proteins. C ells were treated with 20 μM MG132 for 8 hours before being harvested and lysed with lysis buffer (50 mM Tris-HCl, pH 7.5, 150 mM NaCl, 1% NP40, 0.5% sodium deoxycholate, 1× protease inhibitor cocktail (PIC)). The lysate was subjected to co-immunoprecipitation using anti-FLAG-conjugated agarose beads as described in the Co-IP assay.

## Cc1sc2c(c1C)C(c1ccc(Cl)cc1)=N[C@@H](CC(=O)OC(C)(C)C)c1nnc(C)n1-2 [JQ1]
  SPOP-BRD2/3/4 protein interaction: diminished
  SPOP-induced BRD2/3/4 ubiquitination and degradation: partially blocked
